# Data published in US20160115540A1, “PRODRUGS AND DRUGS” (Biogen MA Inc., priority 2013, published 2016).
# Structures can show the parent of a compound that is named as a salt.
# System: blood and tissues
# Assay: Transcriptional profiling, multi-dosing regimen, naïve mice: blood and other tissues
# Type: in vivo
# Conditions: for Number of differentially expressed genes identified: Cerebellum / Number of differentially expressed genes identified: Lymph Node / Number of differentially expressed genes identified: Whole blood: Table 13: Naïve, Single Dose (so in the source), 12 h after last dosing
# Experimental: In vivo, DMF is rapidly metabolized to monomethyl fumarate (MMF). […] Animals were exposed to CO2 and whole blood collected via cardiac puncture. Two 100 μl aliquots of whole blood were collected in 1.5 mL microcentrifuge tubes and snap frozen in liquid nitrogen. Peripheral (liver, spleen, kidney and jejunum) and CNS brain (cerebellum, hippocampus, striatum and cortex) tissues were harvested and snap frozen in liquid nitrogen, with special care taken to collect tissues of similar size and from the same location. All samples were stored at -80° C. until RNA extraction was conducted. For RNA preparation, frozen tissues were placed in 2 mL RNAse-free 96-well blocks with 1.5 mL QIAzol Lysis Reagent (QIAgen) and a 3.2 mm stainless steel bead (BioSpec Products, Bartlesville, Okla.). Tissues were disrupted for four cycles of 45 seconds in a Mini-Beadbeater (Biospec Products). RNA was extracted in chloroform and the aqueous phase was mixed with an equal volume of 70% ethanol. Extracted RNA was applied to RNeasy 96 plates and purified by the spin method according to the manufacturer's protocol (RNeasy 96 Universal Tissue Protocol, QIAgen, Hilden Germany). 50 ul of snap frozen mouse blood was re-suspended in lysis buffer with proteinase K and arrayed into deep-well plates for automated RNA extraction. RNA extractions were completed on […] (Beckman Coulter, Indianapolis, Ind.) using Agencourt RNAdvance Blood kit (Part number A35604) according to the manufacturer's specifications. RNA integrity was assessed using the HT RNA reagent kit (Part number 760410, Caliper Life Sciences, Hopkinton, Mass.) using a LabChip GX (PerkinElmer, Waltham, Mass.). RNA samples with a RQS score of >8.0 were considered high quality for downstream microarray processing. […] Two micrograms of biotin labeled […] probe were hybridized to Affymetrix GeneChip Affymetrix HT_MG-430_PM plate arrays with modified conditions as described in […] et al. Washing and staining of the hybridized arrays were completed as described in the GeneChip Expression analysis technical manual for HT plate arrays using the Genechip® Array Station (Affymetrix, Santa Clara, Calif.) with modifications as described in […] et al. The processed GeneChip® plate arrays were scanned using GeneTitan scanner (Affymetrix, Santa Clara, Calif.). Affymetrix scans were subject to quality control (QC) measures. These tests included a visual inspection of the distribution of raw signal intensities and an assessment of RNA degradation, relative log expression (RLE), and normalized unsealed standard error (NUSE). All sample scans that passed these QC metrics were included in the analysis. All CEL files were subjected to GC-content-based Robust Multi-array Average (GCRMA) normalization (version 2.20.0) (Irizarry R A, et al. Nucleic Acids Res 2003; 31:e15; Li C, et al. Genome Biol 2001; 2:[…]0032). […] Stat Appl Genet Mol Biol 2004; 3:Article3). […] Springer Science+Business Media 2005). Changes in gene expression were studied by applying a linear modeling approach to fit gene expression levels according to the defined groups of samples (e.g. DMF-, MMF-, and Vehicle-treated animals) and Bayesian posterior error analysis as implemented by Smyth (Smyth G K. Stat Appl Genet Mol Biol 2004; 3:Article3). The comparisons considered included: DMF-vs-MMF, DMF-vs-Vehicle, and MMF-vs-Vehicle. […] Very few DEGs are observed in blood and tissues derived from the central nervous system (brain, cerebellum, cortex, striatum, and spinal cord).
# [1] = CEREBELLUM, 100DMF-vs-Veh, naïve multidose
# [2] = LYMPH NODE, 100DMF-vs-Veh, naïve multidose
# [3] = WHOLE BLOOD, 100DMF-vs-100MMF, naïve multidose
# [4] = CEREBELLUM, 100MMF-vs-Veh, naïve multidose
# [5] = LYMPH NODE, 100MMF-vs-Veh, naïve multidose
# [6] = WHOLE BLOOD, 100MMF-vs-Veh, naïve multidose
structure (smiles),measurement,setting,value
"COC(=O)/C=C/C(=O)OC [DMF, dimethyl fumarate]",FC,"1110020A21Rik 1439574_PM_at, WHOLE BLOOD, 100DMF-vs-Veh",−1.77
same,FC,"8430427H17Rik 1428284_PM_at, WHOLE BLOOD, 100DMF-vs-Veh",−1.73
same,FC 1110021J02Rik (1419892_PM_at),[1],1.54
same,FC Aox1 (1419435_PM_at),[1],1.60
same,FC Apold1 (1441228_PM_at),[1],1.85
same,FC Cnnm3 (1420481_PM_at),[1],1.62
same,FC Prr15 (1452473_PM_at),[1],1.80
same,FC Rapgef4 (1421622_PM_a_at),[1],−1.55
same,FC Tgm2 (1437277_PM_x_at),[1],1.51
same,FC probe 1457266_PM_at (no gene symbol),[1],1.51
same,FC Ccl6 (1420249_PM_s_at),[2],1.66
same,FC Ccl17 (1419413_PM_at),[2],−1.57
same,FC Nqo1 (1423627_PM_at),[2],1.95
same,FC Nts (1422860_PM_at),[2],2.72
same,FC,"Parm1 1424214_PM_at, WHOLE BLOOD, 100DMF-vs-Veh",−1.68
same,FC,"Pla2g7 1430700_PM_a_at, WHOLE BLOOD, 100DMF-vs-Veh",1.65
same,FC,"Slc27a2 1416316_PM_at, WHOLE BLOOD, 100DMF-vs-Veh",−2.37
same,Number of differentially expressed genes identified: Cerebellum,100 mpk DMF-vs-90 mpk MMF,0
same,Number of differentially expressed genes identified: Lymph Node,100 mpk DMF-vs-90 mpk MMF,0
same,Number of differentially expressed genes identified: Whole blood,100 mpk DMF-vs-90 mpk MMF,0
same,Number of differentially expressed genes identified: Cerebellum,100 mpk DMF-vs-Vehicle,8
same,Number of differentially expressed genes identified: Lymph Node,100 mpk DMF-vs-Vehicle,4
same,Number of differentially expressed genes identified: Whole blood,100 mpk DMF-vs-Vehicle,5
same,FC 2610001J05Rik (1448002_PM_x_at),[3],−4.35
same,FC 8430408G22Rik (1433836_PM_a_at),[3],1.78
same,FC A730017C20Rik (1437528_PM_x_at),[3],1.56
same,FC Aco1 (1456728_PM_x_at),[3],1.56
same,FC Cadm2 (1435146_PM_s_at),[3],1.50
same,FC Cdk7 (1424257_PM_at),[3],1.73
same,FC Cherp (1436885_PM_a_at),[3],1.53
same,FC Neo1 (1447694_PM_x_at),[3],−3.98
"COC(=O)/C=C/C(=O)O [MMF, monomethyl fumarate]",FC,"1447339_PM_at (no gene symbol), WHOLE BLOOD, 100MMF-vs-Veh",2.49
same,FC 1110021J02Rik (1419892_PM_at),[4],1.56
same,FC 9430064I24Rik (1442912_PM_at),[4],1.86
same,FC Aox1 (1419435_PM_at),[4],1.54
same,FC Apold1 (1441228_PM_at),[4],1.95
same,FC Cntn2 (1456962_PM_at),[4],1.98
same,FC D130062J21Rik (1446929_PM_at),[4],1.66
same,FC Kat2b (1450821_PM_at),[4],−1.68
same,FC Lrrc50 (1421974_PM_at),[4],1.61
same,FC Pcsk1n (1416965_PM_at),[4],1.50
same,FC Prr15 (1452473_PM_at),[4],1.53
same,FC Slc35a5 (1423457_PM_at),[4],−1.50
same,FC Sox12 (1439754_PM_at),[4],1.67
same,FC Tm6sf2 (1425079_PM_at),[4],1.85
same,FC probe 1442605_PM_at (no gene symbol),[4],−1.75
same,FC probe 1446131_PM_at (no gene symbol),[4],1.78
same,FC,"Csf1 1460220_PM_a_at, WHOLE BLOOD, 100MMF-vs-Veh",1.75
same,FC,"Csrp3 1460318_PM_at, WHOLE BLOOD, 100MMF-vs-Veh",1.52
same,FC,"Egr3 1436329_PM_at, WHOLE BLOOD, 100MMF-vs-Veh",−1.60
same,FC,"Gstm1 1416416_PM_x_at, WHOLE BLOOD, 100MMF-vs-Veh",1.59
same,FC Gtf2ird1 (1460364_PM_at),[5],1.56
same,FC Npas2 (1421037_PM_at),[5],1.75
same,FC Nqo1 (1423627_PM_at),[5],1.74
same,FC,"Lpl 1415904_PM_at, WHOLE BLOOD, 100MMF-vs-Veh",2.65
same,FC,"Pla2g7 1430700_PM_a_at, WHOLE BLOOD, 100MMF-vs-Veh",1.76
same,FC,"Slc27a2 1416316_PM_at, WHOLE BLOOD, 100MMF-vs-Veh",−1.93
same,Number of differentially expressed genes identified: Cerebellum,90 mpk MMF-vs-Vehicle,15
same,Number of differentially expressed genes identified: Lymph Node,90 mpk MMF-vs-Vehicle,3
same,Number of differentially expressed genes identified: Whole blood,90 mpk MMF-vs-Vehicle,11
same,FC,"Tnfaip2 1416273_PM_at, WHOLE BLOOD, 100MMF-vs-Veh",1.81
same,FC,"Tnfaip2 1438855_PM_x_at, WHOLE BLOOD, 100MMF-vs-Veh",1.52
same,FC,"Trf 1425546_PM_a_at, WHOLE BLOOD, 100MMF-vs-Veh",1.56
same,FC A230048O21Rik (1458051_PM_at),[6],1.53
same,FC Aco1 (1456728_PM_x_at),[6],−2.14
same,FC Adamts20 (1456901_PM_at),[6],−1.69
same,FC Adora2a (1460710_PM_at),[6],1.66
same,FC Ankrd33b (1453782_PM_at),[6],−1.64
same,FC Anks1b (1460449_PM_at),[6],−1.56
same,FC Armcx2 (1456739_PM_x_at),[6],−1.76
same,FC Ascc3 (1457069_PM_at),[6],−1.61
same,FC B3galnt2 1454842_PM_a_at,[6],−1.86
same,FC B3galt1 (1455234_PM_at),[6],−1.50
same,FC Cno 1459783_PM_s_at,[6],−1.77
same,FC Commd3 (1454642_PM_a_at),[6],−1.50
same,FC Cycs /// Gm10053 1456071_PM_a_at,[6],−1.64
same,FC D6Wsu116e (1456056_PM_a_at),[6],−1.74
same,FC Ddr1 (1456226_PM_x_at),[6],−1.58
same,FC Dnaja1 (1459835_PM_s_at),[6],−1.60
same,FC Eftud2 (1456107_PM_x_at),[6],−1.61
same,FC Eif4g2 (1452758_PM_s_at),[6],−1.91
same,FC Epc2 (1455317_PM_at),[6],−1.56
same,FC Fgd4 (1455337_PM_at),[6],−1.52
same,FC Fgfbp3 (1453006_PM_at),[6],−1.58
same,FC Gm8203 /// H2afz (1456032_PM_x_at),[6],−1.53
same,FC Gsto1 1456036_PM_x_at,[6],−1.64
same,FC Gtf3c3 (1454765_PM_at),[6],−1.82
same,FC Hecw1 (1456527_PM_at),[6],−1.55
same,FC Hspa1b 1452318_PM_a_at,[6],−1.57
same,FC Itga8 (1454966_PM_at),[6],−1.51
same,FC Kbtbd7 (1452700_PM_s_at),[6],−1.52
same,FC Kcnt2 (1459971_PM_at),[6],−1.73
same,FC Kctd3 1455816_PM_a_at,[6],−1.88
same,FC Lasp1 (1455470_PM_x_at),[6],−1.56
same,FC Lrrtm1 (1455883_PM_a_at),[6],−1.60
same,FC Lztr1 (1455928_PM_x_at),[6],−2.01
same,FC Matn2 (1455978_PM_a_at),[6],−2.07
same,FC Mrps23 (1459806_PM_x_at),[6],−1.56
same,FC Nr3c1 (1457635_PM_s_at),[6],−1.58
same,FC Odz2 (1457273_PM_at),[6],−1.53
same,FC Olfm1 (1455796_PM_x_at),[6],−1.65
same,FC Pcdh17 (1453070_PM_at),[6],−1.53
same,FC Pik3ca (1453134_PM_at),[6],−1.62
same,FC Pitrm1 (1456577_PM_x_at),[6],−1.68
same,FC Prcp (1452190_PM_at),[6],1.53
same,FC Ptpn12 (1455105_PM_at),[6],−1.54
same,FC Pvrl3 (1457257_PM_x_at),[6],−2.12
same,FC Qrsl1 (1456542_PM_s_at),[6],−1.67
same,FC Ralgapa2 (1455750_PM_at),[6],−1.74
same,FC Ric8 (1455809_PM_x_at),[6],−1.56
same,FC Rnf112 (1456108_PM_x_at),[6],−1.57
same,FC Rp2h (1454816_PM_at),[6],−1.51
same,FC Snx16 (1456041_PM_at),[6],−1.78
same,FC Sos2 (1452281_PM_at),[6],−1.56
same,FC Surf4 (1455822_PM_x_at),[6],−1.56
same,FC Tceb1 1452593_PM_a_at,[6],−1.52
same,FC Tmed10 (1454688_PM_x_at),[6],−1.52
same,FC Tnik (1458403_PM_at),[6],−1.58
same,FC Tra2a (1454725_PM_at),[6],−1.65
same,FC Trim23 (1456089_PM_at),[6],−1.71
same,FC Ubr3 (1460455_PM_at),[6],−1.63
same,FC Wdr6 (1455940_PM_x_at),[6],−1.50
same,FC Wtap (1454805_PM_at),[6],−1.57
same,FC probe 1452426_PM_x_at (no gene symbol),[6],−1.56
same,FC probe 1455603_PM_at (no gene symbol),[6],−1.71
same,FC probe 1457494_PM_at (no gene symbol),[6],−1.53
same,FC probe 1458639_PM_at (no gene symbol),[6],1.51
same,FC probe 1459409_PM_at (no gene symbol),[6],1.71
